Tested on: S-opsin, M-opsin, L-opsin
Assay: Quantitative PCR of S-opsin, M-opsin, L-opsin after maturation culture in serum-free medium
Type: cell-based, human
Settings: T3 added (0-8 nM) in serum-free DMEM/F12 after about day 190, not less than 30 days
Protocol: By a method similar to the methods described in Example 1 and Example 3, a cell aggregate containing a retinal tissue in a differentiation stage matured to the level that Muller cell was observed was prepared and culture was performed, in the serum-containing medium used, up to about day 190 to give a retinal tissue in a differentiation stage matured to the level that Muller cell was observed. Thereafter, by a method similar to the methods described in Example 11 and 12, further maturation was performed. That is, 0-1.35 nM BMP4 and 0-8 nM T3 were added to a medium obtained by adding 1% N2 supplement and 100 μM taurine but not adding 10% fetal calf serum to DMEM/F12 medium containing glutamic acid as a component, and culture was performed for not less than 30 days from the start of culture for further maturation. A cell aggregate containing a retinal tissue was recovered, quantitatively PCR was performed according to a conventional method, and the expression levels of S-opsin, M-opsin, L-opsin were confirmed. As a result, irrespective of the presence or absence of BMP4, the expression of S-opsin was promoted when T3 was absent.

Question: N[C@@H](Cc1cc(I)c(Oc2ccc(O)c(I)c2)c(I)c1)C(=O)O [T3, triodo-I-thyronine] was tested. Which “expression of S-opsin” value did it give?
Answer: suppressed
